# According to patent US20240174648A1, “Small Molecule Compound” (Technoderma Medicines Pte Ltd, priority 2019, published 2024):
# Legend:
# Assay type in all cases: biochemical
# JAK3 = molecular target: T1, JAK3 (Homo sapiens, UniProt P52333); experiment: JAK kinase inhibition assay (EZ Reader, peptide substrate phosphorylation) - JAK3; conditions: JAK3 kinase 1 nM; 8 concentration points, max 10 μM
# T1 sequence (P52333 1-1124): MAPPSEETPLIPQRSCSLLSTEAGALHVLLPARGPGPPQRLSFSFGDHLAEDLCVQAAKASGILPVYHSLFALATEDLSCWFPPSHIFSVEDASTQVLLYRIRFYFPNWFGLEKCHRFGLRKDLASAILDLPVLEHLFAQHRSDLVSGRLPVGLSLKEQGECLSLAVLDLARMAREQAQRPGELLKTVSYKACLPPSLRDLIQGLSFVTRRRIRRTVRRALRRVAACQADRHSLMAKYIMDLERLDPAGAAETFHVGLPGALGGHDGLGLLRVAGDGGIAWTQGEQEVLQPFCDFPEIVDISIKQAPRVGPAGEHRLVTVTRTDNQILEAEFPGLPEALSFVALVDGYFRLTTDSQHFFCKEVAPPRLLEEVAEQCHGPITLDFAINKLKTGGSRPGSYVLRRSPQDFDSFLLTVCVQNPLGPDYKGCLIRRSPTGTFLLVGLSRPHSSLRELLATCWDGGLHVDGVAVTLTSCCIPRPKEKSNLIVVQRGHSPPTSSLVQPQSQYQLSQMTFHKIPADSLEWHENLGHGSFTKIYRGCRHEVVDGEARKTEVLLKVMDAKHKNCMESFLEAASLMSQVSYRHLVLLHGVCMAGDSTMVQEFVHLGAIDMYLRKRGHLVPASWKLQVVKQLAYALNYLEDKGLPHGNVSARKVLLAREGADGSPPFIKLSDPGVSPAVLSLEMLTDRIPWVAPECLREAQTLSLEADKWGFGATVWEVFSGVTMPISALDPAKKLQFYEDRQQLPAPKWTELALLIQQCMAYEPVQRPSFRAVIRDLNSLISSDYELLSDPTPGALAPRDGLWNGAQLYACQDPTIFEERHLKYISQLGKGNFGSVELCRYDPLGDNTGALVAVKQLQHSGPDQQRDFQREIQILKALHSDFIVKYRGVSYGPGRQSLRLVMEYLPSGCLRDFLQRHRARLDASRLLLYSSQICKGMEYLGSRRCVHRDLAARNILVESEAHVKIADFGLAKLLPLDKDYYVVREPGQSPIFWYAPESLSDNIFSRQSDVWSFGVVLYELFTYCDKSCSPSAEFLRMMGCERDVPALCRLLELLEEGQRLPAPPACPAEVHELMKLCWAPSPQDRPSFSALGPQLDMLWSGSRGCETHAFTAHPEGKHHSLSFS
# Text: (§1) Assay for Identifying Inhibitory Effects of Compounds on JAK Kinases
# (§2) Janus kinases (JAK), including JAK1, JAK2, JAK3 and Tyk2, transduce a cytokine-mediated signal through a JAK-STAT pathway. The kinases are 120-140 kDa in size and have 7 determined homology regions: JH1 to JH7. JH1 is an important region for enzymatic activity and has typical characteristics of tyrosine kinases. Phosphorylation of tyrosine leads to a change in the conformation of JAK protein, thereby promoting binding of substrate. The JAK-STAT system includes three main parts: receptors penetrating a cell membrane, Janus kinases binding to the receptors, and signal transducers and activators of transcription (STAT) for transmitting signals to a nucleus and DNA. When cytokines bind to receptors, JAK phosphorylates the receptors and attracts STAT proteins. The STAT proteins are also phosphorylated and combined with one another to form dimers. The dimers enter the nucleus and bind to DNA, thereby leading to gene transcription.
# (§3) EZ Reader from PerkinElmer can be used to detect the phosphorylation of polypeptide substrates catalyzed by kinases. The device is based on microfluidic techniques, and can directly detect fluorescently labeled substrates and products. The separation step is achieved by controlling the pressure and electric field strength in the microfluidic chip. In kinase assays, a product conversion ratio is usually controlled to be 20-30%. A biological test is used to identify inhibitory effects of compounds on JAKs.
# (§4) Compound powder was dissolved in DMSO, sealed and stored in a freezer under −20° C. The in-house compound Ref1 was used as a positive control for JAK1, JAK2 and Tyk2 tests, and Ref2 was used as a positive control for JAK3 tests.
# (§5) S2.8. Assay buffer: 20 mM HEPES buffer, pH 7.4, 10 mM magnesium chloride, 0.01% bovine serum albumin BSA, 0.0005% Tween-20 and 1 mM dithiothreitol solution.
# (§6) S2.9. Stop buffer: 180 mM HEPES buffer, 20 mM ethylenediaminetetraacetic acid and 0.2% coating reagent 3.
# (§7) S2.10. Separation buffer: 100 mM HEPES buffer, 10 mM ethylenediaminetetraacetic acid, 0.0005% Tween 20, 0.1% coating reagent 3 and 1% dimethyl sulfoxide.
# The compound was dissolved in dimethyl sulfoxide and diluted to 10 mM concentration, a certain volume of solution was taken and diluted to 0.6 mM concentration, 10 μL of the 0.6 mM dilution was added to a 384-well microplate, and then was diluted 3-fold with a total of 8 concentration points. […]
# Positive control (HPE1): Ref2, final concentration: 10 μM
# (§8) Negative control (ZPE): DMSO, final content: 1.6%
# (§9) Compounds: maximum final concentration: 10 μM; 3-fold dilution, 8 concentration points and 2 duplicates.
# (§10) S4.1. 250 nL of the compound was added to each well of the assay microplate by using ECHO, and centrifuged at 1000 rpm for 1 minute.
# (§11) S4.2. 5 μL of the assay buffer was added and agitated for a few seconds to fully dissolve the compound.
# (§12) S4.3. 5 μL of 3× substrate solution and 5 μL of 3× kinase solution were added and centrifuged at 800 rpm for 1 minute.
# (§13) S4.4. Final concentrations of JAK1, JAK2, JAK3 and Tyk2 kinases in the reaction system were 20 nM, 1 nM, 1 nM and 1 nM respectively.
# (§14) S4.5. Incubation at room temperature, where kinases had time differences, and different batches of kinases had time differences.
# (§15) S4.6. When 20%-30% of the reaction completed, 15 μL of stop buffer was added to stop the reaction, and centrifuged at 1000 rpm for 2 minutes.
# (§16) S4.7. The microplates were placed on EZ Reader for reading.
# (§17) S4.8. Readings on EZ Reader were calculated by using a peak height, where product conversion ratio (%)=product/(product+substrate)*100.
# (§18) 5. Data Processing: IC50 calculation
# (§19) A graphing software Xlfit was used to form a concentration curve of the test compound, and an IC50 value was calculated.
# (§20) “A” means “≥10 μM”; “B” means “≥1 μM and <10 μM”; “C” means “≥0.1 μM and <1 μM”; and “D” means “<0.1 μM”.
# Tyk2 = Tyk2 (Homo sapiens, UniProt P29597); experiment: JAK kinase inhibition assay (EZ Reader, peptide substrate phosphorylation) - Tyk2; conditions: Tyk2 kinase 1 nM; 8 concentration points, max 10 μM
# Sequence of Tyk2 (P29597 whole entry): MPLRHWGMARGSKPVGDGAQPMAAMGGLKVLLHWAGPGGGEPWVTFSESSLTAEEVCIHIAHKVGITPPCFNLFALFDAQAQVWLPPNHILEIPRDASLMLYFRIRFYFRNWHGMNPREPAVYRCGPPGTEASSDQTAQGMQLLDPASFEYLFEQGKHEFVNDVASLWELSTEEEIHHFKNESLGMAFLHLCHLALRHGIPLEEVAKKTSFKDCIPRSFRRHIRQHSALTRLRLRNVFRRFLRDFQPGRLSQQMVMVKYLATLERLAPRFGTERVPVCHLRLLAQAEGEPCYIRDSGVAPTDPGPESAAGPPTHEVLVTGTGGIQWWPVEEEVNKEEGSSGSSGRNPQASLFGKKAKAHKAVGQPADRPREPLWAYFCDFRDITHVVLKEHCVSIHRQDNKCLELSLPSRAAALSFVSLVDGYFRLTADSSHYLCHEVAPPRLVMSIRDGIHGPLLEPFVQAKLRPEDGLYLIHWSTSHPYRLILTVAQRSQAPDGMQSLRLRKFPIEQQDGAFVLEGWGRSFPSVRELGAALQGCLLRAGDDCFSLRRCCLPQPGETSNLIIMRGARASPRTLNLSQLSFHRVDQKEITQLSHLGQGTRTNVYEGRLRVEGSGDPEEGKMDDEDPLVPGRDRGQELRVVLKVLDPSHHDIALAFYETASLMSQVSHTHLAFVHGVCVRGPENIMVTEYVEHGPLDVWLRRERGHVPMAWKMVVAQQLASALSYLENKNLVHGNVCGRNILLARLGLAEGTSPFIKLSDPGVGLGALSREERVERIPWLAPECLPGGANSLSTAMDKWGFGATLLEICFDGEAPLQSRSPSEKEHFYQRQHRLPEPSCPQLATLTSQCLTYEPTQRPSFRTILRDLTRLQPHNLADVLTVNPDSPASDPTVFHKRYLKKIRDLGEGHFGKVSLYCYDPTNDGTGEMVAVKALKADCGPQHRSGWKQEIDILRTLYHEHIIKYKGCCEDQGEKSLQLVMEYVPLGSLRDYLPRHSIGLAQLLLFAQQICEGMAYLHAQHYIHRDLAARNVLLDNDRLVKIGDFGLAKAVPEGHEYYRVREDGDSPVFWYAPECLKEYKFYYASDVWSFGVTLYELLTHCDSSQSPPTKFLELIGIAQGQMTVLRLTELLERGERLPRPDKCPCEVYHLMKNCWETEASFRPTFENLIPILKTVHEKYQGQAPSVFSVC
# Procedure, shortened: (§21)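 Microfluidic mobility-shift detection of fluorescent peptide substrate phosphorylation, with JAK1 at 20 nM and JAK2, JAK3 and Tyk2 each at 1 nM final, in 20 mM HEPES pH 7.4, 10 mM MgCl2, 1 mM DTT. Reactions run at room temperature to 20–30% conversion, then EDTA-stopped. Compounds tested at 8 three-fold dilutions from 10 μM top final; IC50 from conversion curves.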
# JAK1 = JAK1 (Homo sapiens, UniProt P23458); experiment: JAK kinase inhibition assay (EZ Reader, peptide substrate phosphorylation) - JAK1; conditions: JAK1 kinase 20 nM; 8 concentration points, max 10 μM
# Sequence of JAK1 (P23458 whole entry): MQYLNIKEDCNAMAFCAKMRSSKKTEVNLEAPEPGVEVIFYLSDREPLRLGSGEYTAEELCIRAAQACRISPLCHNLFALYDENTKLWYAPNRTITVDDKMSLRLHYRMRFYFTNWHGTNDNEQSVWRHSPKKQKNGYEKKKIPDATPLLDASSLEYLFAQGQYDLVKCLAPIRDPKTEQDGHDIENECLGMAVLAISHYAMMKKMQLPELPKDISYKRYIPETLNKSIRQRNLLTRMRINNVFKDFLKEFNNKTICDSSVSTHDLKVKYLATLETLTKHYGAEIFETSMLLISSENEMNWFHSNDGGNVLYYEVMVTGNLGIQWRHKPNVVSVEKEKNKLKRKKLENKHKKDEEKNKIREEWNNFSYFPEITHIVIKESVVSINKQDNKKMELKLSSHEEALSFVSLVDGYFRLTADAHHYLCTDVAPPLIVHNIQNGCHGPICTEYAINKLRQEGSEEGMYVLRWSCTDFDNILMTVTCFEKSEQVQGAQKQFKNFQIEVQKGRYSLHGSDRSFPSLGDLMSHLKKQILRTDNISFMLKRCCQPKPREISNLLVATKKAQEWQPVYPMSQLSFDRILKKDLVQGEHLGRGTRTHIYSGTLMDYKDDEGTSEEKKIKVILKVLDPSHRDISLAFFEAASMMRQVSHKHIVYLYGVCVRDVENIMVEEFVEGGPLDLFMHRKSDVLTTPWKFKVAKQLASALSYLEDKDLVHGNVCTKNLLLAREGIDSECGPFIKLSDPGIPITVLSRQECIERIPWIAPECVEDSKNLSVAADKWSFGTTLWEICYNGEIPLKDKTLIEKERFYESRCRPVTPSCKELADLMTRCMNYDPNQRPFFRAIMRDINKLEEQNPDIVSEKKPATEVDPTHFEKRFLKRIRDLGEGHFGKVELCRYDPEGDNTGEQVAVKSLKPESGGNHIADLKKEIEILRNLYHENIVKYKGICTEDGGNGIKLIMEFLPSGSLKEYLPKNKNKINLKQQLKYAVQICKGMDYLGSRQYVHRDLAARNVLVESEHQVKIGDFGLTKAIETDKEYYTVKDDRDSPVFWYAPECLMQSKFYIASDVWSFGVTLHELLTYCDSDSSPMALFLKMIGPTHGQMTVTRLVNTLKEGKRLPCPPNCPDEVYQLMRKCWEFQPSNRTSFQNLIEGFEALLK
# Procedure, shortened: as §21
# JAK2 = JAK2 (Homo sapiens, UniProt O60674); experiment: JAK kinase inhibition assay (EZ Reader, peptide substrate phosphorylation) - JAK2; conditions: JAK2 kinase 1 nM; 8 concentration points, max 10 μM
# Sequence of JAK2 (O60674 whole entry): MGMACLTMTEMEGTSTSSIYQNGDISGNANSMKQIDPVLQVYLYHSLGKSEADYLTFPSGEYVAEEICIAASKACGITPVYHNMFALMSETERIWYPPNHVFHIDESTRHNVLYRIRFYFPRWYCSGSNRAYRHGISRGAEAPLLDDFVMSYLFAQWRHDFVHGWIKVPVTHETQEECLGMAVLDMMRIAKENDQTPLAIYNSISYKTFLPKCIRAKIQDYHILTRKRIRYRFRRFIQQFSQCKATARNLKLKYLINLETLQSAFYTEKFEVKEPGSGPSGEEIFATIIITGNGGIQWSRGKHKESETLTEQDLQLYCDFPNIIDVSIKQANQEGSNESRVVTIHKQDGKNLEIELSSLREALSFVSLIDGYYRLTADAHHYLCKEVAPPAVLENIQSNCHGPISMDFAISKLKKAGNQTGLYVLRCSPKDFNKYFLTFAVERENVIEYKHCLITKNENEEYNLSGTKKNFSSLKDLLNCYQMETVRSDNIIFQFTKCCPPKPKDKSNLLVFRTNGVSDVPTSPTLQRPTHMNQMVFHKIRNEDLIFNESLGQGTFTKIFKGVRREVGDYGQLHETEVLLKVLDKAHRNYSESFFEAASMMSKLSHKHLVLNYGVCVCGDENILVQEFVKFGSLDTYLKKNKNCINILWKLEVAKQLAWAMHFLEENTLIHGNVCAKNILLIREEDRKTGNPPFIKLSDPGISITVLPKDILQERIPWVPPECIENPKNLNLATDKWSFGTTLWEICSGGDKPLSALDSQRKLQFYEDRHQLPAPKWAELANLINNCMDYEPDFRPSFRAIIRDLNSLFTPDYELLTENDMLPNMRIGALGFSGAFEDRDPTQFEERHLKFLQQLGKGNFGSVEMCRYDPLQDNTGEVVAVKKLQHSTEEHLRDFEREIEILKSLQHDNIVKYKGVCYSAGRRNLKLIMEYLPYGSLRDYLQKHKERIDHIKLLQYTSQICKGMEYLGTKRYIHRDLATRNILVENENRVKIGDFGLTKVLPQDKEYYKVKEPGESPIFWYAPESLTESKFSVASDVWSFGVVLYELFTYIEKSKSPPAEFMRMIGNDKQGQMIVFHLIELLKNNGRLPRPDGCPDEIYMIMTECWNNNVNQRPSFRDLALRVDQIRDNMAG
# Text: as §1, §2, §3, §4, §5, §6, §7
# The compound was dissolved in dimethyl sulfoxide and diluted to 10 mM concentration, a certain volume of solution was taken and diluted to 0.6 mM concentration, 10 μL of the 0.6 mM dilution was added to a 384-well microplate, and then was diluted 3-fold with a total of 8 concentration points.
# Positive control (HPE1): Ref1, final concentration: 10 μM […]
# as §8, §9, §10, §11, §12, §13, §14, §15, §16, §17, §18, §19, §20
compound,measurement,setting,value
"Cn1cc(Nc2nccc(-c3ccc(C(=O)NCC(F)(F)F)cc3)n2)cn1 [TDM-180748, 4-(2-((1-methyl-1H-pyrazol-4-yl)amino)pyrimidin-4-yl)-N-(2,2,2-trifluoroethyl)benzamide]",IC50,JAK3,1 to 10 µM
same,IC50,Tyk2,0.1 to 1 µM
same,IC50,JAK1,0.1 to 1 µM
same,IC50,JAK2,0.1 to 1 µM
Cn1cc(Nc2nccc(-c3ccc(C(=O)N4CCS(=O)(=O)CC4)cc3)n2)cn1 [TDM-180749],IC50,JAK3,≥ 10 µM
same,IC50,Tyk2,1 to 10 µM
same,IC50,JAK1,1 to 10 µM
same,IC50,JAK2,1 to 10 µM
"Cn1cc(Nc2nccc(-c3ccc(NC(=O)CC(F)(F)F)cc3)n2)cn1 [TDM-180754, 3,3,3-trifluoro-N-(4-(2-((1-methyl-1H-pyrazol-4-yl)amino)pyrimidin-4-yl)phenyl)propanamide]",IC50,JAK3,1 to 10 µM
same,IC50,Tyk2,0.1 to 1 µM
same,IC50,JAK1,< 0.1 µM
same,IC50,JAK2,< 0.1 µM
"Cn1cc(Nc2nccc(-c3ccc(NC(=O)C4CC4)cc3)n2)cn1 [TDM-180755, N-(4-(2-((1-methyl-1H-pyrazol-4-yl)amino)pyrimidin-4-yl)phenyl)cyclopropanecarboxamide]",IC50,JAK3,1 to 10 µM
same,IC50,Tyk2,< 0.1 µM
same,IC50,JAK1,< 0.1 µM
same,IC50,JAK2,< 0.1 µM
"Cn1cc(Nc2nccc(-c3ccc(C(=O)NCC(F)(F)F)nc3)n2)cn1 [TDM-180756, 5-(2-((1-methyl-1H-pyrazole-4-yl)amino)pyrimidin-4-yl)-N-(2,2,2-trifluoroethyl)pyridinecarboxamide]",IC50,JAK3,1 to 10 µM
same,IC50,Tyk2,0.1 to 1 µM
same,IC50,JAK1,0.1 to 1 µM
same,IC50,JAK2,0.1 to 1 µM
"Cn1cc(Nc2nccc(-c3ccc(NC(=O)C4CC4(F)F)cc3)n2)cn1 (stereo not drawn) [TDM-180757, 2,2-difluoro-N-(4-(2-((1-methyl-1H-pyrazol-4-yl)amino)pyrimidin-4-yl)phenyl)cyclopropane-1-carboxamide]",IC50,JAK3,0.1 to 1 µM
same,IC50,Tyk2,< 0.1 µM
same,IC50,JAK1,< 0.1 µM
same,IC50,JAK2,< 0.1 µM
"Cn1cc(Nc2nccc(-c3ccc(C(=O)NC4CC4(F)F)cc3)n2)cn1 (stereo not drawn) [TDM-180758, N-(2,2-difluorocyclopropyl)-4-(2-((1-methyl-1H-pyrazol-4-yl)amino)pyrimidin-4-yl)benzamide]",IC50,JAK3,1 to 10 µM
same,IC50,Tyk2,1 to 10 µM
same,IC50,JAK1,0.1 to 1 µM
same,IC50,JAK2,1 to 10 µM
"COCC(=O)Nc1ccc(-c2ccnc(Nc3cnn(C)c3)n2)cc1 [TDM-180759, 2-methoxy-N-(4-(2-((1-methyl-1H-pyrazol-4-yl)amino)pyrimidin-4-yl)phenyl)acetamide]",IC50,JAK3,≥ 10 µM
same,IC50,Tyk2,1 to 10 µM
same,IC50,JAK1,1 to 10 µM
same,IC50,JAK2,1 to 10 µM
"Cn1cc(Nc2nccc(-c3ccc(CNCC(F)(F)F)cc3)n2)cn1 [TDM-180760, N-(1-methyl-1H-pyrazol-4-yl)-4-(4-(((2,2,2-trifluoroethyl)amino)methyl)phenyl)pyrimidin-2-amine]",IC50,JAK3,≥ 10 µM
same,IC50,Tyk2,0.1 to 1 µM
same,IC50,JAK1,0.1 to 1 µM
same,IC50,JAK2,1 to 10 µM
"Cn1cc(Nc2nccc(-c3ccc(CNCC#N)cc3)n2)cn1 [TDM-180761, 2-((4-(2-((1-methyl-1H-pyrazol-4-yl)amino)pyrimidin-4-yl)benzyl)amino)acetonitrile]",IC50,JAK3,≥ 10 µM
same,IC50,Tyk2,0.1 to 1 µM
same,IC50,JAK1,0.1 to 1 µM
same,IC50,JAK2,1 to 10 µM
"Cn1cc(Nc2nccc(-c3ccc(C(=O)NCC#N)nc3)n2)cn1 [TDM-180762, N-(cyanomethyl)-5-(2-((1-methyl-1H-pyrazol-4-yl)amino)pyrimidin-4-yl)pyridinecarboxamide]",IC50,JAK3,1 to 10 µM
same,IC50,Tyk2,0.1 to 1 µM
same,IC50,JAK1,0.1 to 1 µM
same,IC50,JAK2,0.1 to 1 µM
"Cn1cc(Nc2nccc(-c3ccc(-n4nccc4C4CC4)cc3)n2)cn1 [TDM-180763, 4-(4-(5-cyclopropyl-1H-pyrazol-1-yl)phenyl)-N-(1-methyl-1H-pyrazol-4-yl)pyrimidin-2-amine]",IC50,JAK3,≥ 10 µM
same,IC50,Tyk2,1 to 10 µM
same,IC50,JAK1,10 µM
same,IC50,JAK2,1 to 10 µM
"Cn1cc(Nc2nccc(-c3ccc(C(=O)N4CCS(=O)(=O)CC4)nc3)n2)cn1 [TDM-180764, (1,1-sulfur dioxide) (5-(2-((1-methyl-1H-pyrazol-4-yl)amino)pyrimidin-4-yl)pyridin-2-yl)methanone]",IC50,JAK3,≥ 10 µM
same,IC50,Tyk2,1 to 10 µM
same,IC50,JAK1,1 to 10 µM
same,IC50,JAK2,1 to 10 µM
"Cn1cc(Nc2nccc(-c3ccc(NS(=O)(=O)C4CC4)cc3)n2)cn1 [TDM-180767, N-(4-(2-((1-methyl-1H-pyrazol-4-yl)amino)pyrimidin-4-yl)phenyl)cyclopropanesulfo]",IC50,JAK3,1 to 10 µM
same,IC50,Tyk2,0.1 to 1 µM
same,IC50,JAK1,0.1 to 1 µM
same,IC50,JAK2,0.1 to 1 µM
"CCS(=O)(=O)Nc1ccc(-c2ccnc(Nc3cnn(C)c3)n2)cc1 [TDM-180768, N-(4-(2-((1-methyl-1H-pyrazol-4-yl)amino)pyrimidin-4-yl)phenyl)ethanesulfonamide]",IC50,JAK3,1 to 10 µM
same,IC50,Tyk2,0.1 to 1 µM
same,IC50,JAK1,0.1 to 1 µM
same,IC50,JAK2,0.1 to 1 µM
